Assay results reported in US20220081421A1, “ANTIBACTERIAL COMPOUNDS” (Forge Therapeutics, Inc., priority 2018, published 2022).
In brackets after ≈: the same amount, converted by molar mass. Where two headings read alike, the source gives them in different places.

Experiments:
E. coli = assay: MIC by broth microdilution (CLSI), E. coli; type: cell-based; details: Escherichia coli, read-out: E. coli MIC
Description: (§1) Minimal inhibitory concentrations (MIC) were determined by the broth microdilution method in accordance with the Clinical and Laboratory Standards Institute (CLSI) guidelines. In brief, organism suspensions were adjusted to a 0.5 McFarland standard to yield a final inoculum between 3×10^5 and 7×10^5 colony-forming units (CFU)/mL. Drug dilutions and inocula were made in sterile, cation adjusted Mueller-Hinton Broth (Beckton Dickinson). An inoculum volume of 100 μL was added to wells containing 100 μL of broth with 2-fold serial dilutions of drug. All inoculated microdilution trays were incubated in ambient air at 35° C. for 18-24 h. Following incubation, the lowest concentration of the drug that prevented visible growth (OD600 nm<0.05) was recorded as the MIC. Performance of the assay was monitored by the use of laboratory quality-control strains and levofloxacin, a compound with a defined MIC spectrum, in accordance with CLSI guidelines.

K. pneumoniae = assay: MIC by broth microdilution (CLSI), K. pneumoniae; type: cell-based; details: Klebsiella pneumoniae, read-out: K. pneumoniae MIC
Description: as §1

[1] = broth microdilution, cation adjusted Mueller-Hinton Broth, 35° C., 18-24 h

Compound | MIC (E. coli; [1]) [µg/mL] | further results
COC(=O)NCC(Cc1ccc(C#Cc2ccc(CN3CCOCC3)cc2)cn1)c1nc[nH]c(=O)c1O (stereo not drawn) [Compound 29, methyl (2-(5-hydroxy-6-oxo-1,6-dihydropyrimidin-4-yl)-3-(5-((4-(morpholinomethyl)phenyl)ethynyl)pyridin-2-yl)propyl)carbamate] | > 32 | MIC (K. pneumoniae; [1]): > 32 µg/mL
CC(Cc1ccc(C#Cc2ccc(CN3CCOCC3)cc2)cc1)c1nc[nH]c(=O)c1O (stereo not drawn) [Compound 104, 5-hydroxy-6-(1-(4-((4-(morpholinomethyl)phenyl)ethynyl)phenyl)propan-2-yl)pyrimidin-4(3H)-one] | 1 to 8 (≈ 2.33 to 18.6 µM) | MIC (K. pneumoniae; [1]): 1 to 8 µg/mL (≈ 2.33 to 18.6 µM)
O=C1N(Cc2nc[nH]c(=O)c2O)Cc2cc(C#Cc3ccc(CN4CCOCC4)cc3)cn21 [Compound 81, 2-((5-hydroxy-6-oxo-1,6-dihydropyrimidin-4-yl)methyl)-6-((4-(morpholinomethyl)phenyl)ethynyl)-1,2-dihydro-3H-pyrrolo[1,2-c]imidazol-3-one] | 8 to 32 (≈ 18 to 71.8 µM) | –
CC(=O)NCC(Cc1ccc(C#Cc2ccc(CN3CCOCC3)cc2)cc1)c1c(O)cn[nH]c1=O (stereo not drawn) [Compound 131, N-(2-(5-hydroxy-3-oxo-2,3-dihydropyridazin-4-yl)-3-(4-((4-(morpholinomethyl)phenyl)ethynyl)phenyl)propyl)acetamide] | > 32 | MIC (K. pneumoniae; [1]): > 32 µg/mL
O=c1[nH]cnc(CCc2ccc(C#Cc3ccncc3)cc2)c1O [Compound 18, 5-hydroxy-6-(4-(pyridin-4-ylethynyl)phenethyl) pyrimidin-4(3H)-one] | < 1 | MIC (K. pneumoniae; [1]): > 32 µg/mL
O=c1[nH]cnc(CCc2ccc(C#Cc3ccc(CNC4CCOC4)cc3)cn2)c1O (stereo not drawn) [Compound 20, 5-hydroxy-6-(2-(5-((4-(((tetrahydrofuran-3-yl)amino)methyl)phenyl)ethynyl)pyridin-2-yl)ethyl)pyrimidin-4(3H)-one] | < 1 | MIC (K. pneumoniae; [1]): 8 to 32 µg/mL (≈ 19.2 to 76.8 µM)
CNC(=O)C(Cc1ccc(C#Cc2ccc(CN3CCOCC3)cc2)cc1)n1cncc(O)c1=O (stereo not drawn) [Compound 4, 2-(5-hydroxy-6-oxopyrimidin-1(6H)-yl)-N-methyl-3-(4-((4-(morpholinomethyl)phenyl)ethynyl)phenyl)propanamide] | > 32 | –
CC(=O)NCC(Cc1ccc(C#Cc2ccc(CN3CCOCC3)cc2)cc1)c1cc[nH]c(=O)c1O (stereo not drawn) [Compound 1, N-(2-(3-hydroxy-2-oxo-1,2-dihydropyridin-4-yl)-3-(4-((4-(morpholinomethyl)phenyl)ethynyl)phenyl)propyl) acetamide] | > 32 | –
O=C(NCC(F)F)C(Cc1ccc(C#Cc2cnc(C(F)(F)F)nc2)cc1)c1nc[nH]c(=O)c1O (stereo not drawn) [Compound 27, N-(2,2-difluoroethyl)-2-(5-hydroxy-6-oxo-1,6-dihydropyrimidin-4-yl)-3-(4-((2-(trifluoromethyl)pyrimidin-5-yl)ethynyl)phenyl) propanamide] | > 32 | MIC (K. pneumoniae; [1]): > 32 µg/mL
N#CCC(Cc1ccc(C#Cc2ccc(CN3CCOCC3)cc2)cc1)c1nc[nH]c(=O)c1O (stereo not drawn) [Compound 106, 3-(5-hydroxy-6-oxo-1,6-dihydropyrimidin-4-yl)-4-(4-((4-(morpholinomethyl)phenyl)ethynyl)phenyl)butanenitrile] | 1 to 8 (≈ 2.2 to 17.6 µM) | MIC (K. pneumoniae; [1]): 1 to 8 µg/mL (≈ 2.2 to 17.6 µM)
O=c1ccoc(CNc2ccc(C#Cc3ccc(CN4CCOCC4)cc3)cc2)c1O [Compound 109, 3-hydroxy-2-(((4-((4-(morpholinomethyl)phenyl)ethynyl)phenyl)amino)methyl)-4H-pyran-4-one] | 1 to 8 (≈ 2.4 to 19.2 µM) | MIC (K. pneumoniae; [1]): 8 to 32 µg/mL (≈ 19.2 to 76.8 µM)
CS(=O)(=O)C(Cc1ccc(C#Cc2ccc(CN3CCOCC3)cc2)cc1)c1occc(=O)c1O (stereo not drawn) [Compound 120, 3-hydroxy-2-(l1-(methylsulfonyl)-2-(4-((4-(morpholinomethyl)phenyl)ethynyl)phenyl)ethyl)-4H-pyran-4-one] | > 32 | –
Cn1cnc(C(CNC(=O)CF)Cc2ccc(C#Cc3ccc(CN4CCOCC4)cc3)cc2)c(O)c1=O (stereo not drawn) [Compound 132, 2-fluoro-N-(2-(5-hydroxy-1-methyl-6-oxo-1,6-dihydropyrimidin-4-yl)-3-(4-((4-(morpholinomethyl)phenyl)ethynyl)phenyl)propyl)acetamide] | – | MIC (E. coli): > 32 µg/mL; MIC (K. pneumoniae): > 32 µg/mL
C=C(Cc1ccc(C#CC#Cc2ccc(C(=O)N3CCN(C)CC3)cc2)cc1)c1nc[nH]c(=O)c1O [Compound 33, 5-hydroxy-6-(3-(4-((4-(4-methylpiperazine-1-carbonyl)phenyl)buta-1,3-diyn-1-yl)phenyl)prop-1-en-2-yl)pyrimidin-4(3H)-one] | 1 to 8 (≈ 2.09 to 16.7 µM) | MIC (K. pneumoniae; [1]): 1 to 8 µg/mL (≈ 2.09 to 16.7 µM)
O=c1ccoc(CS(=O)(=O)c2ccc(C#Cc3ccc(CN4CCOCC4)cc3)cc2)c1O [Compound 124, 3-hydroxy-2-(((4-((4-(morpholinomethyl)phenyl)ethynyl)phenyl)sulfonyl)methyl)-4H-pyran-4-one] | > 32 | –
Cn1ccc(=O)c(O)c1CNc1ccc(C#Cc2ccc(CN3CCOCC3)cc2)cc1 [Compound 2, 3-hydroxy-1-methyl-2-(((4-((4-(morpholinomethyl)phenyl)ethynyl)phenyl)amino)methyl) pyridin-4(1H)-one] | 8 to 32 (≈ 18.6 to 74.5 µM) | –

Compound | MIC (E. coli; [1]) [µg/mL] | further results
O=c1[nH]cnc(C(Cc2ccc(C#Cc3ccc(CN4CCOCC4)cc3)cc2)Cn2cnnn2)c1O (stereo not drawn) [Compound 119, 5-hydroxy-6-(1-(4-((4-(morpholinomethyl)phenyl)ethynyl)phenyl)-3-(1H-tetrazol-1-yl)propan-2-yl)pyrimidin-4(3H)-one] | > 32 | –
O=c1[nH]cnc(Cn2ccc(C#Cc3ccc(CN4CCOCC4)cc3)cc2=O)c1O [Compound 44, 5-hydroxy-6-((4-((4-(morpholinomethyl)phenyl)ethynyl)-2-oxopyridin-1(2H)-yl)methyl)pyrimidin-4(3H)-one] | 8 to 32 (≈ 19.1 to 76.5 µM) | –
O=c1[nH]cnc(CNc2ccc(C#Cc3ccc(-c4nnn[nH]4)cc3)cc2)c1O [Compound 129, 6-(((4-((4-(1H-tetrazol-5-yl)phenyl)ethynyl)phenyl)amino)methyl)-5-hydroxypyrimidin-4(3H)-one] | > 32 | –
C=CCC(Nc1ccc(C#Cc2ccc(CN3CCOCC3)cc2)cc1)c1occc(=O)c1O (stereo not drawn) [Compound 126, 3-hydroxy-2-(1-((4-((4-(morpholinomethyl)phenyl)ethynyl)phenyl)amino)but-3-en-1-yl)-4H-pyran-4-one] | > 32 | –
CNC(=O)C(Cc1ccc(C#Cc2ccc(CN3CCOCC3)cc2)cc1)c1nccc(O)c1O (stereo not drawn) [Compound 12, 2-(3,4-dihydroxypyridin-2-yl)-N-methyl-3-(4-((4-(morpholinomethyl)phenyl)ethynyl)phenyl)propanamide] | 8 to 32 (≈ 17 to 67.9 µM) | –
NC(=O)C(Cc1ccc(C#Cc2ccc(CN3CCOCC3)cc2)cc1)n1cccc(O)c1=O (stereo not drawn) [Compound 6, 2-(3-hydroxy-2-oxopyridin-1(2H)-yl)-3-(4-((4-(morpholinomethyl)phenyl)ethynyl)phenyl)propanamide] | > 32 | –
CC(=O)NCC(Cc1ccc(C#Cc2ccc(CN3CCOCC3)cc2)cc1)n1cncc(O)c1=O (stereo not drawn) [Compound 3, N-(2-(5-hydroxy-6-oxopyrimidin-1(6H)-yl)-3-(4-((4-(morpholinomethyl)phenyl)ethynyl)phenyl)propyl) acetamide] | > 32 | –
O=c1[nH]cnc(CS(=O)(=O)c2ccc(C#Cc3ccc(CN4CCOCC4)cc3)cc2)c1O [Compound 118, 5-hydroxy-6-(((4-((4-(morpholinomethyl)phenyl)ethynyl)phenyl)sulfonyl)methyl) pyrimidin-4(3H)-one] | 8 to 32 (≈ 17.2 to 68.7 µM) | –
N#CC(Cc1ccc(C#Cc2ccc(CN3CCOCC3)cc2)cc1)c1cc[nH]c(=O)c1O (stereo not drawn) [Compound 121, 2-(3-hydroxy-2-oxo-1,2-dihydropyridin-4-yl)-3-(4-((4-(morpholinomethyl)phenyl)ethynyl)phenyl)propanenitrile] | > 32 | –
O=C(O)c1ccc(C#Cc2ccc(NCc3occc(=O)c3O)cc2)cc1 [Compound 123, 4-((4-(((3-hydroxy-4-oxo-4H-pyran-2-yl)methyl)amino)phenyl)ethynyl)benzoic acid] | > 32 | –
NC(=O)C(Cc1ccc(C#Cc2ccc(CN3CCOCC3)cc2)cc1)n1cncc(O)c1=O (stereo not drawn) [Compound 5, 2-(5-hydroxy-6-oxopyrimidin-1(6H)-yl)-3-(4-((4-(morpholinomethyl)phenyl)ethynyl)phenyl)propanamide] | > 32 | –
O=c1[nH]cnc(CN(CCO)c2ccc(C#Cc3ccc(CN4CCOCC4)cc3)cc2)c1O [Compound 127, 5-hydroxy-6-(((2-hydroxyethyl)(4-((4-(morpholinomethyl)phenyl)ethynyl)phenyl)amino)methyl) pyrimidin-4(3H)-one] | > 32 | –
O=C(Nc1ccc(C#CC#Cc2ccccc2)cc1)c1occc(=O)c1O [Compound 130, 3-hydroxy-4-oxo-N-(4-(phenylbuta-1,3-diyn-1-yl)phenyl)-4H-pyran-2-carboxamide] | > 32 | –
O=c1[nH]cnc(CNc2ccc(C#Cc3ccc(-c4ncco4)cc3)cc2)c1O [Compound 128, 5-hydroxy-6-(((4-((4-(oxazol-2-yl)phenyl)ethynyl)phenyl)amino)methyl)pyrimidin-4(3H)-one] | > 32 | –
O=c1[nH]cnc(CCc2ncc(C#Cc3ccc(CN4CCOCC4)cc3)cn2)c1O [Compound 21, 5-hydroxy-6-(2-(5-((4-(morpholinomethyl)phenyl)ethynyl)pyrimidin-2-yl)ethyl)pyrimidin-4(3H)-one] | 1 to 8 (≈ 2.4 to 19.2 µM) | –
CS(=O)(=O)NCC(Cc1ccc(C#Cc2ccc(CN3CCOCC3)cc2)cc1)n1cncc(O)c1=O (stereo not drawn) [Compound 7, N-(2-(5-hydroxy-6-oxopyrimidin-1(6H)-yl)-3-(4-((4-(morpholinomethyl)phenyl)ethynyl)phenyl)propyl) methanesulfonamide] | > 32 | –
